The data set concerns erythrocytes. Kind of data set: Intracellular access of the drugs in erythrocytes (LC-MS). It counts as in vitro ADME, human. Conditions: 30 min incubation, milrinone 10 µM, amrinone 100 µM, levosimendan 1 µM. The protocol:
Fresh (<24 h) EDTA blood from healthy donors (n = 18) was obtained and washed with Krebs-Ringer-Phosphate-Buffer containing glucose (KRPB/G, pH 7.4) and centrifuged (10 min, 1,000 g) three consecutive times. Plasma and buffy coat were removed. KRPB/G was added to the cell solution to bring it to the ratio 1:2.5. Hematocrit (Hct) was measured and adjusted with additional buffer to reach 0.44, in order to give the final Hct of 0.40 in the incubation solution. […] The reaction was stopped by placing the test tubes on ice and adding 4 ml of ice cold KRFB/G. The samples were subsequently centrifugated (5 min, 600 g), then washed with KRFB/G once more and centrifugation was repeated twice. 50 µl of the remaining red blood cell suspension was transferred to Eppendorf tubes. 50 µl 500 nM IS-Milrinone-d3 was added as an internal standard (TLC Pharmaceutical Standards Ltd.). 200 µl ZnSO4 was added to each test sample, to induce lysis of the cells, and mixed in a vortex mixer. 30 µl of the samples were used for measurement of protein concentration, the rest was mixed with 500 µl acetonitrile and centrifugated (2 min, 13400 g). Finally, 100 µl of the solution was collected for analysis using mass spectrometry (MS).
Liquid chromatography tandem mass spectrometry (LC-MS) was used to assess concentrations of the inhibitors for experiments performed to determine intracellular access of these drugs, as well as to quantify levels of cAMP/AMP and cGMP/GMP for the PDE3-and PDE5-inhibition plots. Internal standards were used, as described previously. There was a linearity from 0.2 nM to at least 2000 nM (r^2 > 0.998) for cAMP, AMP, and cGMP. For GMP, linearity was present from 2 nM to at least 2000 nM (r^2 > 0.998). Concerning PDE3-inhibitors, the linearity was found at 10 nM to at least 5,000 nM (r^2 > 0.99). Lower limit of quantification (LLOQ) was 0.2 for cAMP, cGMP, and AMP, 2 nM for GMP and 10 nM for PDE3-inhibitors (2 µl injection volume).
Intracellular concentrations of drugs were adjusted for protein concentrations in each sample. The total incubation concentrations were also adjusted for protein concentrations to evaluate the degree of access in percentage. Statistical analysis was performed using one-way ANOVA with Holm-Sidak multiple comparisons post hoc test at each temperature. ANOVA on ranks with Dunn post hoc test was used when the results were not normally distributed. The results are presented as means ± standard error of mean (SEM). p-values < 0.05 were considered significant results. Degrees of freedom (dF) is given as between group values. SigmaPlot 14.0 (Systat Software, San Jose, CA, United States) was used for all analysis, as well as creating the graphs.

With `Nc1cc(-c2ccncc2)c[nH]c1=O` [Amrinone], the “Intracellular access, % of drug concentration per gram protein in the incubation solution” value reads like this: (28°C) 1.66 ± 0.216%; (34°C) 2.303 ± 0.284%.
Turning to `C[C@@H]1CC(=O)NN=C1c1ccc(NN=C(C#N)C#N)cc1` [Levosimendan], the “Intracellular access, % of drug concentration per gram protein in the incubation solution” value was 18.29 ± 3.122% (28°C) and 25.06 ± 5.289% (34°C).

The values are drawn from article PMC9326216, “Treatment of Cardiovascular Dysfunction with PDE3-Inhibitors in Moderate and Severe Hypothermia—Effects on Cellular Elimination of Cyclic Adenosine Monophosphate and Cyclic Guanosine Monophosphate” (Frontiers in Physiology, 2022).
